Data from patent US12509434B2, “Optically resolved Trolox intermediate and method for producing same” (PTC THERAPEUTICS, INC., priority 2020, dated 2025).

Tests used:
[1] = Solubility of the crystals in ethyl acetate solvent (reslurry, content of supernatant solution); type: physicochemical
Description: Solubility of RS-Trolox⋅R-PEA, R-Trolox⋅R-PEA, and S-Trolox⋅R-PEA to Ethyl Acetate Solvent
Each crystal was reslurried by adding ethyl acetate. The solubility was calculated from analyzing the content of supernatant solution of each reaction solution at each temperature.

[2] = Solubility of the crystals in amide-based solvents NMP and DMA (reslurry, content of supernatant solution); type: physicochemical; conditions: 20 °C
Description: Solubility of R-Trolox⋅R-PEA, S-Trolox⋅R-PEA, and S-Trolox to NMP and DMA
Each crystal was reslurried by adding an amide-based solvent (NMP, DMA). The solubility was calculated from analyzing the content of supernatant solution of each reaction solution at each temperature.

Compound	Solubility to ethyl acetate solvent ([1]; 0 °C)	Solubility to ethyl acetate solvent ([1]; 15 °C)	Solubility to ethyl acetate solvent ([1]; 30 °C)	Solubility [%] DMA [2]	Solubility [%] NMP [2]	Solubility to ethyl acetate solvent ([1]; 45 °C)	Solubility to ethyl acetate solvent ([1]; 60 °C)	Solubility to ethyl acetate solvent ([1]; 75 °C)
C[C@@H](N)c1ccccc1.Cc1c(C)c2c(c(C)c1O)CC[C@@](C)(C(=O)O)O2 [S-Trolox]	2.6%	9.9%	14.2%	≥10%	≥10%			
C[C@@H](N)c1ccccc1.Cc1c(C)c2c(c(C)c1O)CCC(C)(C(=O)O)O2 (racemic) [rac-Trolox]	0.02%	0.02%	0.07%			0.38%	1.08%	2.82%
Cc1c(C)c2c(c(C)c1O)CC[C@](C)(C(=O)O)O2 [R-Trolox]	0.07%	0.09%	0.10%	0.4%	0.5%	0.40%	0.78%	0.83%
Cc1c(C)c2c(c(C)c1O)CC[C@@](C)(C(=O)O)O2 [S-Trolox (Free), (S)-6-hydroxy-2,5,7,8-tetramethylchroman-2-carboxylic acid]				≥10%	≥10%			
